Data on 33 compounds can be found in article PMC6792352, “Limited Chemical Structural Diversity Found to Modulate Thyroid Hormone Receptor in the Tox21 Chemical Library” (Environmental Health Perspectives, 2019).

Structures are written as SMILES. Structures can show the parent of a compound that is named as a salt. Some results are limits rather than exact numbers.

The nature of this series: in vitro. The conditions noted are these: rat, gh3-tre-luc cells, AC50 (uM) modified / 1000.

One may read the CC50 as the concentration giving 50% cytotoxicity. For `N=C(N)c1ccccc1` [Benzenecarboximidamide, monohydrochloride], the half-maximal cytotoxic concentration (CC50) at 24 h was greater than 90 µM. In turn, `O=C(Oc1ccccc1)c1ccccc1` [Phenyl benzoate] showed a CC50 at 24 h greater than 90 µM. For `CO/N=C(/C(=O)OC)c1ccccc1CO/N=C(\C)c1cccc(C(F)(F)F)c1` [Trifloxystrobin] the value was 36.9 µM; for `CCOc1ccc2nc(N)sc2c1` [2-Amino-6-ethoxybenzothiazole], greater than 90 µM. `C=C(C)C(=O)O` [Methacrylic acid]: the half-maximal cytotoxic concentration (CC50) at 24 h is greater than 90 µM. Next, `N=C1N=C(N)c2ccccc21` [1H-Isoindole-1,3(2H)-diimine]: 35.8 µM. `CC(C)[C@H]1CC[C@H](C)C[C@@H]1O` [(1S,2R,5S)-(+)-Menthol] yielded a CC50 at 24 h greater than 90 µM. For `CC(CC=O)CC(C)(C)C` (stereo not drawn) [3,5,5-Trimethylhexanal] the value was greater than 90 µM; for `CCCCOc1cc(C(=O)OCCN(CC)CC)ccc1N` [Benoxinate hydrochloride], greater than 20 µM.

Consider `OCC#CCO` [2-Butyne-1,4-diol], for which the CC50 at 24 h was greater than 90 µM. Next, `O=[N+]([O-])c1cc(C(F)(F)F)ccc1Cl` [1-Chloro-2-nitro-4-(trifluoromethyl)benzene]: greater than 90 µM; `CCc1ccccc1O` [2-Ethylphenol]: greater than 90 µM. `CC(=O)Nc1c(I)cc(I)c(C(=O)O)c1I` [Acetrizoic acid] came in with a CC50 at 24 h greater than 50 µM. The compound `CC(=O)c1nccs1` [2-Acetylthiazole] came in with a CC50 at 24 h greater than 90 µM.

In turn, `CCCC[C@H](CC)COC(=O)/C=C/c1ccc(OC)cc1` [Octinoxate] showed a half-maximal cytotoxic concentration (CC50) at 24 h greater than 90 µM. Next, `Nc1nc(N)nc(-c2ccccc2)n1` [6-Phenyl-1,3,5-triazine-2,4-diamine]: greater than 90 µM; `CC1(C)C(C=C(Cl)Cl)C1C(=O)OCc1cccc(Oc2ccccc2)c1` (stereo not drawn) [Permethrin]: greater than 90 µM; `CCCCOC(=O)COC(=O)c1ccccc1C(=O)OCCCC` [Butylphthalyl butylglycolate]: greater than 90 µM.

`Nc1nnc(-c2cccc(Cl)c2Cl)c(N)n1` [Lamotrigine] showed a cytotoxic concentration (CC50) at 24 h greater than 50 µM. `NC1=NCC2c3ccccc3Cc3ccccc3N12` (stereo not drawn) [Epinastine hydrochloride]: the 50% cytotoxic concentration (CC50) at 24 h was greater than 50 µM. Consider `c1ccc(CN(Cc2ccccc2)Cc2ccccc2)cc1` [Tribenzylamine], for which the CC50 at 24 h was greater than 90 µM. Next, `O=C(O)C(=O)Cc1ccccc1` [Phenylpyruvic acid]: greater than 90 µM; `CN1[C@@H]2CC[C@H]1CC(OC(c1ccccc1)c1ccccc1)C2` (stereo partly drawn) [Benztropine methylsulfonate]: 20.1 µM.

Take `Nc1cccc(S(=O)(=O)c2cccc(N)c2)c1` [3,3'-Sulphonyldianiline]: the cytotoxic concentration (CC50) at 24 h was greater than 90 µM. Consider `CC(C)(C)C1(CCc2ccc(Cl)cc2)CO1` (stereo not drawn) [2-(2-(4-Chlorophenyl)ethyl)-2-(1,1-dimethylethyl)oxirane], for which the CC50 at 24 h is greater than 90 µM. With `C=C[C@]1(C)C[C@@H](OC(=O)CSCCN(CC)CC)[C@]2(C)[C@H](C)CC[C@]3(CCC(=O)[C@H]32)[C@@H](C)[C@@H]1O` [Tiamulin], the CC50 at 24 h was 14.1 µM. For `CSc1ccc(C(=O)c2[nH]c(=O)[nH]c2C)cc1` [Enoximone] the value was greater than 50 µM; for `CCN(CC)CCOC(=O)c1ccc(N)cc1Cl` [Chloroprocaine hydrochloride], greater than 50 µM; for `C=CC[C@]1(O)CC[C@H]2[C@@H]3CCC4=CC(=O)CCC4=C3C=C[C@@]21C` [Altrenogest], greater than 50 µM. `COc1nccnc1NS(=O)(=O)c1ccc(N)cc1` [Sulfalene] showed a 50% cytotoxic concentration (CC50) at 24 h greater than 50 µM. In turn, `O=C1c2ccccc2C(=O)N1CO` [2-(Hydroxymethyl)-1H-Isoindole-1,3(2H)-dione] returned a CC50 at 24 h greater than 90 µM.

`CC(C)N1C(=O)c2ccccc2C1=O` [N-Isopropylphthalimide] registered a CC50 at 24 h greater than 90 µM. Next, `Clc1ccccc1` [Chlorobenzene]: greater than 90 µM.
